In one data set the test system is Blood. The data set is described as follows: Drug metabolism in mouse blood assessed as Pulsatilla saponin A formation at 60 mg/kg/day, ip for 14 days. The format is ADME, organism-based. Particulars: in vivo, 336 h.
Another data set has as its system H22. Description: Antitumor activity against […] xenografted in mouse assessed as tumor growth inhibition at 60 mg/kg/day, ip for 14 days relative to control. The format is functional. The note with it: 336 h, read-out: TGI.
Data set [1] relates to Mus musculus. Description: Toxicity in mouse xenografted with […] assessed as death at 60 mg/kg/day, ip for 14 days. The format is organism-based. The note with it: in vivo, 336 h.
For data set [2], the system named is Mus musculus. The data set is described as follows: Toxicity in mouse xenografted with […] assessed as hematuria at 60 mg/kg/day, ip for 14 days. The format is organism-based. The note with it: in vivo, 336 h.
Data set [3] is described as follows: Hemolytic activity against New Zealand rabbit erythrocytes after 60 mins. Type of data set: ADME, cell-based, Oryctolagus cuniculus, Erythrocyte. Particulars: read-out: HD50.
The test system of a further data set is A549. Description: Cytotoxicity against human A549 cells assessed as reduction in cell viability after 48 hrs by MTT assay. Particulars: A549, 48 h. The format is functional, cell-based.
In the next data set the test system is MCF7. Description: Cytotoxicity against human MCF7 cells assessed as reduction in cell viability after 48 hrs by MTT assay. The format is functional, cell-based. The note with it: MCF7, 48 h.
A further data set deals with KB. Description: Cytotoxicity against human KB cells assessed as reduction in cell viability after 48 hrs by MTT assay. The format is functional, cell-based.
A further data set has as its system BGC-823. The data set is described as follows: Cytotoxicity against human BGC823 cells assessed as reduction in cell viability after 48 hrs by MTT assay. Type of data set: functional, cell-based. Particulars: BGC-823, 48 h.
Data set [4] can be described thus: Cytotoxicity against human KBVIN cells assessed as reduction in cell viability after 48 hrs by MTT assay. The format is functional, cell-based.
The test system of a further data set is SMMC-7721. Description: Cytotoxicity against human SMMC7721 cells assessed as reduction in cell viability after 48 hrs by MTT assay. Type of data set: functional, cell-based. Particulars: SMMC-7721, 48 h.
Data set [5] concerns MDA-MB-231. The data set is described as follows: Cytotoxicity against human MDA-MB-231 cells assessed as reduction in cell viability after 48 hrs by MTT assay. Type of data set: functional, cell-based. The note with it: MDA-MB-231, 48 h.
Data set [6] deals with MDA-MB-231. Description: Cell cycle arrest in human MDA-MB-231 cells assessed as accumulation at G1 phase at 5.5 uM after 24 hrs by propidium iodide staining based flow cytometry. Type of data set: functional.

Active and inactive are the calls of the source. The calls are words filed in the database; no cut-off is given here.

On to `C[C@@H]1O[C@@H](O[C@H]2[C@H](O[C@H]3CC[C@@]4(C)[C@@H](CC[C@]5(C)[C@@H]4CC=C4[C@@H]6CC(C)(C)CC[C@]6(C(=O)NCC(=O)O)CC[C@]45C)[C@]3(C)CO)OC[C@H](O)[C@@H]2O)[C@H](O)[C@@H](O)[C@H]1O`, for which the Drug metabolism result in the data set on Blood is “Metabolite_Notdetected”. Also, the inhibition in vivo at 60 mg/kg/day with H22 is 35.6%. The Activity entry in the data set with Mus musculus [1] and with Mus musculus [2] was “Non-Toxic” in each case.

In the case of `C[C@@H]1O[C@@H](O[C@H]2[C@H](O[C@H]3CC[C@@]4(C)[C@@H](CC[C@]5(C)[C@@H]4CC=C4[C@@H]6CC(C)(C)CC[C@]6(C(=O)O)CC[C@]45C)[C@]3(C)CO)OC[C@H](O)[C@@H]2O)[C@H](O)[C@@H](O)[C@H]1O`, the HC50 at 1 h in data set [3] was 3.86 µM. For the same compound, the IC50 in the data set with A549 is 18.6 to 20.9 µM; in the data set with MCF7, 22.2 µM; with KB, 20.7 µM; with BGC-823, 14.6 µM; in data set [4] it was 19.6 µM; in the data set on SMMC-7721, 12.2 µM. The IC50 in the data set with MDA-MB-231 [5] was determined as 17.8 µM.

On to `CC1(C)CC[C@]2(C(=O)N3CCN(CCC(=O)O)CC3)CC[C@]3(C)C(=CC[C@@H]4[C@@]5(C)CC[C@H](O)[C@@](C)(CO)[C@@H]5CC[C@]43C)[C@@H]2C1`, for which the HC50 at 1 h in [3] was greater than 500 µM. The 50% inhibitory concentration (IC50) with A549 is 31.5 µM; in the data set with MCF7, greater than 40 µM; with KB, 15 µM; in [4] it was greater than 40 µM; in the data set on MDA-MB-231 [5], 32.9 µM.

For `COC(=O)CCN1CCN(C(=O)[C@]23CCC(C)(C)C[C@H]2C2=CC[C@@H]4[C@@]5(C)CC[C@H](OC(C)=O)[C@@](C)(COC(C)=O)[C@@H]5CC[C@@]4(C)[C@]2(C)CC3)CC1`, the outcome in the data set on MDA-MB-231 [6] was Active. Also, the HC50 at 1 h in [3] is greater than 500 µM. For the same compound, the IC50 with A549 was 4.69 µM; in the data set on MCF7 it was 10.7 µM; with KB, 5.08 µM; in data set [4], 5.25 µM; with MDA-MB-231 [5] it was 5.54 µM.

As to `CC1(C)CC[C@]2(C(=O)O)CC[C@]3(C)C(=CC[C@@H]4[C@@]5(C)CC[C@H](O)[C@@](C)(CO)[C@@H]5CC[C@]43C)[C@@H]2C1` [HEDERAGENIN], the HC50 at 1 h in [3] is greater than 200 µM. In addition, the 50% inhibitory concentration (IC50) with A549 is 10.2 µM; in the data set on MCF7, 39.4 µM; with KB it was 14.6 µM; in data set [4], 27.9 µM; in the data set on MDA-MB-231 [5], 36.6 µM.

These data come from ChEMBL document CHEMBL4007448, “The derivatives of Pulsatilla saponin A, a bioactive compound from Pulsatilla chinensis: Their synthesis, cytotoxicity, haemolytic toxicity and mechanism of action” (Eur J Med Chem, 2017).
